Literature values in US8703739B2, “Intravascular indwelling catheter lock solution containing weak acid and container containing the same” (priority 2008, dated 2014).
Read-outs that look alike come from different tables or passages of the source.

SMILES: O=C(O)CC(O)C(=O)O (stereo not drawn) [malic acid]
- Buffer pKa (first pKa): 3.23
- Buffer pKa (second pKa): 4.77

SMILES: O=C1O[C@H]([C@@H](O)CO)C(O)=C1O [ascorbic acid]
- Buffer pKa (first pKa): 4.16
